In patent publication US20230085307A1, “PYRIDAZINONE COMPOUND AND HERBICIDE” (NISSAN CHEMICAL CORPORATION, priority 2019, published 2023):

What was measured:
[1] = system: late watergrass; assay: Test Example 2: herbicidal activity, application during weed generation under submerged conditions (Table 17, symbol A); type: in vivo, late watergrass (Echinochloa oryzicola); details: AAH 320 g/ha; application during weed generation, submerged conditions
Procedure, shortened: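 Effect on each weed is rated three weeks post-treatment, using the same scoring criteria as the preceding test. Plants grow from mixed-sown seed in flooded alluvial soil (4 cm water) at 25° C. to 30° C., and are treated at one to two leaves with diluted emulsion dropped onto the water.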

[2] = system: barnyard grass; assay: Test Example 3: herbicidal effect by foliage application, Wagner pot (Table 18, symbol H); type: in vivo, barnyard grass (Echinochloa crus-galli); details: amount of applied herbicide 320 g/ha
Procedure, shortened: (§1)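 Plants were sown in alluvial soil held under 0.1–0.5 cm standing water and grown 14 days in a greenhouse at 25–30 °C. An emulsifiable formulation, water-diluted to the set dose, was then sprayed onto the foliage, and effects were scored three weeks later using previously defined criteria.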

[3] = system: Chinese sprangletop; assay: Test Example 3: herbicidal effect by foliage application, Wagner pot (Table 18, symbol D); type: in vivo, chinese sprangletop (Leptochloa chinensis); details: amount of applied herbicide 320 g/ha
Procedure, shortened: as §1

[4] = system: southern crabgrass; assay: Test Example 4: herbicidal effect by soil treatment (Table 19, symbol F); type: in vivo, southern crabgrass (Digitaria ciliaris); details: amount of applied herbicide 320 g/ha
Procedure, shortened: (§2)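 Step 1: sow seeds in sterilized diluvial soil, cover ~1.5 cm. Step 2: spray diluted emulsion onto soil surface at predetermined rate. Step 3: greenhouse, 25–30° C, three weeks. Step 4: grade effect on each plant by earlier criteria.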

[5] = system: barnyard grass; assay: Test Example 4: herbicidal effect by soil treatment (Table 19, symbol H); type: in vivo, barnyard grass (Echinochloa crus-galli); details: amount of applied herbicide 320 g/ha
Procedure, shortened: as §2

[6] = system: blackgrass; assay: Test Example 4: herbicidal effect by soil treatment (Table 19, symbol J); type: in vivo, blackgrass (Alopecurus myosuroides); details: amount of applied herbicide 320 g/ha
Procedure, shortened: as §2

[7] = system: redroot pigweed; assay: Test Example 4: herbicidal effect by soil treatment (Table 19, symbol N); type: in vivo, redroot pigweed (Amaranthus retroflexus); details: amount of applied herbicide 320 g/ha
Procedure, shortened: as §2

[8] = system: lambsquarters; assay: Test Example 4: herbicidal effect by soil treatment (Table 19, symbol O); type: in vivo, lambsquarters (Chenopodium album); details: amount of applied herbicide 320 g/ha
Procedure, shortened: as §2

[9] = system: chickweed; assay: Test Example 4: herbicidal effect by soil treatment (Table 19, symbol P); type: in vivo, common chickweed (Stellaria media); details: amount of applied herbicide 320 g/ha
Procedure, shortened: as §2

[10] = system: barnyard grass; assay: Test Example 5: herbicidal effect by foliage application, plastic box (Table 20, symbol H); type: in vivo, barnyard grass (Echinochloa crus-galli); details: foliage application, AAH 320 g/ha, evaluated three weeks after application
Procedure, shortened: (§3)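 Foliar spray test: emulsion formulation diluted in water to a set application rate, sprayed onto 14-day-old plants raised in diluvial soil at 25° C to 30° C under glass. Both herbicidal effect and crop effect rated visually three weeks later.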

[11] = system: wild oat; assay: Test Example 5: herbicidal effect by foliage application, plastic box (Table 20, symbol I); type: in vivo, wild oat (Avena fatua); details: foliage application, AAH 320 g/ha, evaluated three weeks after application
Procedure, shortened: as §3

[12] = system: blackgrass; assay: Test Example 5: herbicidal effect by foliage application, plastic box (Table 20, symbol J); type: in vivo, blackgrass (Alopecurus myosuroides); details: foliage application, AAH 320 g/ha, evaluated three weeks after application
Procedure, shortened: as §3

[13] = system: Italian ryegrass; assay: Test Example 5: herbicidal effect by foliage application, plastic box (Table 20, symbol K); type: in vivo, Italian ryegrass (Lolium multiflorum); details: foliage application, AAH 320 g/ha, evaluated three weeks after application
Procedure, shortened: as §3

[14] = system: velvetleaf; assay: Test Example 5: herbicidal effect by foliage application, plastic box (Table 20, symbol M); type: in vivo, velvetleaf (Abutilon theophrasti); details: foliage application, AAH 320 g/ha, evaluated three weeks after application
Procedure, shortened: as §3

[15] = system: redroot pigweed; assay: Test Example 5: herbicidal effect by foliage application, plastic box (Table 20, symbol N); type: in vivo, redroot pigweed (Amaranthus retroflexus); details: foliage application, AAH 320 g/ha, evaluated three weeks after application
Procedure, shortened: as §3

[16] = system: persian speedwell; assay: Test Example 5: herbicidal effect by foliage application, plastic box (Table 20, symbol R); type: in vivo, Persian speedwell (Veronica persica); details: foliage application, AAH 320 g/ha, evaluated three weeks after application
Procedure, shortened: as §3

Structure (SMILES)	herbicidal effect rating, A: late watergrass [1]	herbicidal effect on H: barnyard grass [2]	herbicidal effect on D: Chinese sprangletop [3]	herbicidal effect on F: southern crabgrass [4]	herbicidal effect on H: barnyard grass [5]	herbicidal effect on J: blackgrass [6]	herbicidal effect on N: redroot pigweed [7]	herbicidal effect on O: lambsquarters [8]	herbicidal effect on P: chickweed [9]	H: barnyard grass, herbicidal effect (criteria 0-5) [10]	I: wild oat, herbicidal effect (criteria 0-5) [11]	J: blackgrass, herbicidal effect (criteria 0-5) [12]	K: Italian ryegrass, herbicidal effect (criteria 0-5) [13]	M: velvetleaf, herbicidal effect (criteria 0-5) [14]	N: redroot pigweed, herbicidal effect (criteria 0-5) [15]	R: persian speedwell, herbicidal effect (criteria 0-5) [16]
Cc1nn(C)c(=O)c(-c2c(-c3ccc([S+]([O-])C(C)C)cc3)sc3ccc(F)cc23)c1O (centres unmarked) [2-257]	2 (Herbicidal rate of 20% or more and less than 40%)	5 (Herbicidal rate of 90% or more (almost completely withered))	3 (Herbicidal rate of 40% or more and less than 70%)	3 (Herbicidal rate of 40% or more and less than 70%)	4 (Herbicidal rate of 70% or more and less than 90%)	1 (Herbicidal rate of 5% or more and less than 20%)	5 (Herbicidal rate of 90% or more (almost completely withered))	5 (Herbicidal rate of 90% or more (almost completely withered))	4 (Herbicidal rate of 70% or more and less than 90%)	5 (Herbicidal rate of 90% or more (almost completely withered))	5 (Herbicidal rate of 90% or more (almost completely withered))	4 (Herbicidal rate of 70% or more and less than 90%)	5 (Herbicidal rate of 90% or more (almost completely withered))	5 (Herbicidal rate of 90% or more (almost completely withered))	5 (Herbicidal rate of 90% or more (almost completely withered))	5 (Herbicidal rate of 90% or more (almost completely withered))
Cc1nn(C)c(=O)c(-c2c(-c3ccc(S(C)(=O)=O)cc3)sc3ccc(F)cc23)c1O [2-258]	4 (Herbicidal rate of 70% or more and less than 90%)	5 (Herbicidal rate of 90% or more (almost completely withered))	5 (Herbicidal rate of 90% or more (almost completely withered))	4 (Herbicidal rate of 70% or more and less than 90%)	5 (Herbicidal rate of 90% or more (almost completely withered))	5 (Herbicidal rate of 90% or more (almost completely withered))	4 (Herbicidal rate of 70% or more and less than 90%)	4 (Herbicidal rate of 70% or more and less than 90%)	4 (Herbicidal rate of 70% or more and less than 90%)	5 (Herbicidal rate of 90% or more (almost completely withered))	5 (Herbicidal rate of 90% or more (almost completely withered))	5 (Herbicidal rate of 90% or more (almost completely withered))	5 (Herbicidal rate of 90% or more (almost completely withered))	5 (Herbicidal rate of 90% or more (almost completely withered))	5 (Herbicidal rate of 90% or more (almost completely withered))	5 (Herbicidal rate of 90% or more (almost completely withered))
COCC(=O)Oc1c(C)nn(C)c(=O)c1-c1c(-c2ccc(OC(F)F)cc2)sc2ccc(F)cc12 [2-283]	5 (Herbicidal rate of 90% or more (almost completely withered))	5 (Herbicidal rate of 90% or more (almost completely withered))	4 (Herbicidal rate of 70% or more and less than 90%)	5 (Herbicidal rate of 90% or more (almost completely withered))	5 (Herbicidal rate of 90% or more (almost completely withered))	3 (Herbicidal rate of 40% or more and less than 70%)	5 (Herbicidal rate of 90% or more (almost completely withered))	5 (Herbicidal rate of 90% or more (almost completely withered))	4 (Herbicidal rate of 70% or more and less than 90%)	5 (Herbicidal rate of 90% or more (almost completely withered))	3 (Herbicidal rate of 40% or more and less than 70%)	4 (Herbicidal rate of 70% or more and less than 90%)	5 (Herbicidal rate of 90% or more (almost completely withered))	5 (Herbicidal rate of 90% or more (almost completely withered))	5 (Herbicidal rate of 90% or more (almost completely withered))	5 (Herbicidal rate of 90% or more (almost completely withered))
Cc1nn(C)c(=O)c(-c2c(-c3ccc(OC(F)F)cc3)sc3ccc(F)cc23)c1OC(=O)c1ccc(Cl)cc1 [2-286]	3 (Herbicidal rate of 40% or more and less than 70%)	5 (Herbicidal rate of 90% or more (almost completely withered))	4 (Herbicidal rate of 70% or more and less than 90%)	0 (Herbicidal rate of 5% or less (almost no effect))	1 (Herbicidal rate of 5% or more and less than 20%)	0 (Herbicidal rate of 5% or less (almost no effect))	4 (Herbicidal rate of 70% or more and less than 90%)	3 (Herbicidal rate of 40% or more and less than 70%)	0 (Herbicidal rate of 5% or less (almost no effect))	5 (Herbicidal rate of 90% or more (almost completely withered))	1 (Herbicidal rate of 5% or more and less than 20%)	4 (Herbicidal rate of 70% or more and less than 90%)	5 (Herbicidal rate of 90% or more (almost completely withered))	5 (Herbicidal rate of 90% or more (almost completely withered))	5 (Herbicidal rate of 90% or more (almost completely withered))	5 (Herbicidal rate of 90% or more (almost completely withered))
Cc1nn(C)c(=O)c(-c2c(-c3ccc(OC(F)F)cc3)sc3ccc(F)cc23)c1OC(=O)C1CCCO1 (centres unmarked) [2-289]	3 (Herbicidal rate of 40% or more and less than 70%)	5 (Herbicidal rate of 90% or more (almost completely withered))	3 (Herbicidal rate of 40% or more and less than 70%)	5 (Herbicidal rate of 90% or more (almost completely withered))	5 (Herbicidal rate of 90% or more (almost completely withered))	5 (Herbicidal rate of 90% or more (almost completely withered))	5 (Herbicidal rate of 90% or more (almost completely withered))	5 (Herbicidal rate of 90% or more (almost completely withered))	5 (Herbicidal rate of 90% or more (almost completely withered))	5 (Herbicidal rate of 90% or more (almost completely withered))	4 (Herbicidal rate of 70% or more and less than 90%)	4 (Herbicidal rate of 70% or more and less than 90%)	5 (Herbicidal rate of 90% or more (almost completely withered))	5 (Herbicidal rate of 90% or more (almost completely withered))	5 (Herbicidal rate of 90% or more (almost completely withered))	5 (Herbicidal rate of 90% or more (almost completely withered))
